# Assay results from PMC8036727, “In Vitro Anticancer Potential of Jasione montana and Its Main Components against Human Amelanotic Melanoma Cells” (International Journal of Molecular Sciences, 2021).
# Counter-ions that a name gives are not always drawn.
# Key:
# [1] = system: human amelanotic melanoma cell line C32 (CRL-1585); assay: Fixable viability stain (FVS520) cytotoxicity assay, flow cytometry; format: cell-based; conditions: C32 cells, 24 h, 10–300 μg/mL, mean ± SD
# Experimental: (§1) The human amelanotic melanoma cell line C32 (CRL-1585) and a normal human fibroblast cell line (PCS-201-012) were cultured in DMEM. DMEM was blended with 10% FBS, 10 µg/mL streptomycin, and […] penicillin. The cells were cultured in 5% CO2 and fully humidified at 37 °C. All tested compounds were used at a final DMSO concentration of not more than 0.5% (v/v). Cells cultured in drug-free DMEM were used as controls, and cells with the addition of only DMSO were used as solvent-controls; VLB was used as a positive control. The JM4 fraction was analyzed at the following concentrations: 25, 50 and 100 µg/mL and compound 22 and VLB were analyzed at 25 µg/mL. For the cytotoxicity assay, all extracts and compounds were tested at the following concentrations: 10, 25, 50, 100, 200, and 300 µg/mL.
# This analysis was performed to estimate the level of viable cells after treatment with JM1–JM6, compounds 9, 12, 22 and VLB at concentrations ranging from 10 to 300 µg/mL. Cytotoxicity was evaluated by FVS520 via a flow cytometer (BD FACSCanto II flow cytometer, San Jose, CA, USA). In contrast to nonpermeable live cells, the permeable membranes of necrotic cells allow for the intracellular diffusion of FVS520 and the covalent binding of high concentrations of amines. Thus, necrotic cells contained a higher level of FVS520 and, consequently, increased fluorescence intensity than viable cells. After 24 h of incubation, C32 cells and fibroblasts were washed with PBS, trypsinized and resuspended in DMEM. The supernatant was removed, and 0.5 mL of Stain Buffer with the addition of 1 µL of FVS520 was added to each sample, which was vortexed immediately and kept for 10–15 min in the dark at room temperature. After incubation and the addition of 2 mL of PBS, the supernatant was removed, the cells were resuspended in 300 µL of PBS and then immediately subjected to analysis. The results were analyzed based on FACSDiva software (BD Biosciences Systems, San Jose, CA, USA). Based on the results of the cytotoxicity analysis, further research in this project focused on the determination of the full anticancer mechanism of the most promising fraction JM4 and compound 22.
# C32 melanoma cells [2] = assay: Cell cycle analysis by PI staining, flow cytometry; format: cell-based, human; conditions: 25 μg/mL, 24 h
# Experimental: The human amelanotic melanoma cell line C32 (CRL-1585) and a normal human fibroblast cell line (PCS-201-012) were cultured in DMEM. […] Cells cultured in drug-free DMEM were used as controls, and cells with the addition of only DMSO were used as solvent-controls; VLB was used as a positive control. The JM4 fraction was analyzed at the following concentrations: 25, 50 and 100 µg/mL and compound 22 and VLB were analyzed at 25 µg/mL. For the cytotoxicity assay, all extracts and compounds were tested at the following concentrations: 10, 25, 50, 100, 200, and 300 µg/mL. The allocation of cell cycle stage was analyzed on a FACSCanto II flow cytometer. C32 cells were cured with JM4, 22 and VLB for 24 h of incubation. Thereafter, the cells were harvested and adjusted with 1 mL of 70% EtOH and maintained at −20 °C for 24 h. Next, the cells were washed with PBS, treated with 50 µg/mL DNase-free RNase A solution for 5 min at room temperature, stained with 100 µg/mL PI for 30 min at 37 °C, and submitted to flow cytometry analysis. The results were analyzed with FACSDiva software.
# [3] = system: caspase-10 in C32 melanoma cells; assay: FLICA Caspase-10 assay, flow cytometry; format: cell-based, human; conditions: 25 μg/mL, 24 h
# Experimental: (§2) The human amelanotic melanoma cell line C32 (CRL-1585) and a normal human fibroblast cell line (PCS-201-012) were cultured in DMEM. […] Cells cultured in drug-free DMEM were used as controls, and cells with the addition of only DMSO were used as solvent-controls; VLB was used as a positive control. The JM4 fraction was analyzed at the following concentrations: 25, 50 and 100 µg/mL and compound 22 and VLB were analyzed at 25 µg/mL. For the cytotoxicity assay, all extracts and compounds were tested at the following concentrations: 10, 25, 50, 100, 200, and 300 µg/mL. Determination of the caspase-3, caspase-8, caspase-9, and caspase-10 activity were carried out by the following kits: FLICA Caspase-3/7 Assay Kit, FLICA Caspase-8 Assay Kit, FLICA Caspase-9 Assay Kit, and FLICA Caspase-10 Assay Kit using a BD FACSCanto II flow cytometer. […] After 1 h, the cells were flushed with apoptosis wash buffer and resuspended in […] of the same reagent with […] PI. The procedure of determining the activity of each caspase was carried out analogously. The results were analyzed with FACSDiva software.
# C32 melanoma cells [4] = assay: Mitochondrial membrane potential (MMP), JC-1 MitoScreen, flow cytometry; format: cell-based, human; conditions: 25 μg/mL, 24 h; untreated control 5.2 ± 0.1%
# Experimental: The human amelanotic melanoma cell line C32 (CRL-1585) and a normal human fibroblast cell line (PCS-201-012) were cultured in DMEM. […] Cells cultured in drug-free DMEM were used as controls, and cells with the addition of only DMSO were used as solvent-controls; VLB was used as a positive control. The JM4 fraction was analyzed at the following concentrations: 25, 50 and 100 µg/mL and compound 22 and VLB were analyzed at 25 µg/mL. For the cytotoxicity assay, all extracts and compounds were tested at the following concentrations: 10, 25, 50, 100, 200, and 300 µg/mL. […] After incubation, the cells were flushed again, resuspended in PBS, and immediately subjected to BD FACSCanto II flow cytometry analysis. The results were analyzed using FACSDiva.
# [5] = system: normal human fibroblast cell line (PCS-201-012); assay: Fixable viability stain (FVS520) cytotoxicity assay, flow cytometry; format: cell-based; conditions: normal human fibroblasts, 24 h, 10–300 μg/mL
# Experimental: The human amelanotic melanoma cell line C32 (CRL-1585) and a normal human fibroblast cell line (PCS-201-012) were cultured in DMEM. […] Cells cultured in drug-free DMEM were used as controls, and cells with the addition of only DMSO were used as solvent-controls; VLB was used as a positive control. The JM4 fraction was analyzed at the following concentrations: 25, 50 and 100 µg/mL and compound 22 and VLB were analyzed at 25 µg/mL. For the cytotoxicity assay, all extracts and compounds were tested at the following concentrations: 10, 25, 50, 100, 200, and 300 µg/mL. […] Cytotoxicity was evaluated by FVS520 via a flow cytometer (BD FACSCanto II flow cytometer, San Jose, CA, USA). In contrast to nonpermeable live cells, the permeable membranes of necrotic cells allow for the intracellular diffusion of FVS520 and the covalent binding of high concentrations of amines. Thus, necrotic cells contained a higher level of FVS520 and, consequently, increased fluorescence intensity than viable cells. After 24 h of incubation, C32 cells and fibroblasts were washed with PBS, trypsinized and resuspended in DMEM. […] After incubation and the addition of 2 mL of PBS, the supernatant was removed, the cells were resuspended in 300 µL of PBS and then immediately subjected to analysis. The results were analyzed based on FACSDiva software (BD Biosciences Systems, San Jose, CA, USA). […]
# C32 melanoma cells [6] = assay: Annexin V-FITC/PI binding apoptosis assay, flow cytometry; format: cell-based, human; conditions: 25 μg/mL, 24 h; for apoptotic cells: untreated control 7.3 ± 1.3%
# Experimental: During programmed cell death, annexin V has a high affinity for phosphatidylserine (PS) when it is exposed to the extracellular environment. […] The assay allows differentiability between viable cells (annexin V–/PI–) and early (annexin V–/PI+) and late (annexin V+/PI+) apoptotic cells, as well as necrotic cells (annexin V–/PI+).
# The human amelanotic melanoma cell line C32 (CRL-1585) and a normal human fibroblast cell line (PCS-201-012) were cultured in DMEM. DMEM was blended with 10% FBS, 10 µg/mL streptomycin, and 10 units/mol penicillin. The cells were cultured in 5% CO2 and fully humidified at 37 °C. All tested compounds were used at a final DMSO concentration of not more than 0.5% (v/v). Cells cultured in drug-free DMEM were used as controls, and cells with the addition of only DMSO were used as solvent-controls; VLB was used as a positive control.
# Characterization of the mode of apoptosis induced by JM4, 22 and VLB was performed in C32 cells via flow cytometry using a FITC Annexin V Apoptosis Detection Kit II. All stages of programmed cell death could be identified by annexin V bound with high affinity to PS. PI is a standard flow cytometric viability explorer that stains cells that interfere with the cell membrane, and it can be used to distinguish necrotic cells from dead cells. After the C32 cells were incubated for 24 h with various concentrations of JM4, 22 and VLB, they were trypsinized and resuspended in binding buffer. After that, 5 µL of annexin V-FITC and 5 µL of PI were added and maintained for 15 min in the dark at room temperature. The results were analyzed using FACSDiva software.
# [7] = system: caspase-9 in C32 melanoma cells; assay: FLICA Caspase-9 assay, flow cytometry; format: cell-based, human; conditions: 25 μg/mL, 24 h
# Experimental: as §2
# [8] = system: caspase-8 in C32 melanoma cells; assay: FLICA Caspase-8 assay, flow cytometry; format: cell-based, human; conditions: 25 μg/mL, 24 h
# Experimental: as §2
# C32 melanoma cells [9] = assay: Autophagy Assay, Red, flow cytometry; format: cell-based, human; conditions: 25 μg/mL, 24 h
# Experimental: as §1
# An autophagy assay was carried out to detect the impact of JM4, compound 22, and VLB on the autophagy process of C32 cells via flow cytometry using an Autophagy Assay, Red kit. The probe is a cell-permeable aliphatic molecule that brightly fluoresces after unjumbling […] and autolysosomes into lipid membranes. […] The results were analyzed with FACSDiva software.
# [10] = system: caspase-3 in C32 melanoma cells; assay: FLICA Caspase-3/7 assay, flow cytometry; format: cell-based, human; conditions: 25 μg/mL, 24 h; untreated control 4.2 ± 1.3%
# Experimental: as §1
# Determination of the caspase-3, caspase-8, caspase-9, and caspase-10 activity were carried out by the following kits: FLICA Caspase-3/7 Assay Kit, FLICA Caspase-8 Assay Kit, FLICA Caspase-9 Assay Kit, and FLICA Caspase-10 Assay Kit using a BD FACSCanto II flow cytometer. C32 cells were incubated with JM4, compound 22 and VLB for 24 h, washed twice with PBS, resuspended in buffer supplemented with […] of FLICA reagent, and incubated. […] The results were analyzed with FACSDiva software.
smiles,measurement,setting,value
"O=c1cc(-c2ccc(O)c(O)c2)oc2cc(OC3OC(CO)C(O)C(O)C3OC3OCC(O)C(O)C3O)cc(O)c12 [Compound 9, luteolin 7-O-β-D-xylosyl-(1-2)-β-D-glucoside]",IC50,[1],> 300 µg/mL
"O=c1cc(-c2ccc(O)c(O)c2)oc2cc(OC3OC(CO)C(O)C(O)C3O)cc(O)c12 [Compound 12, luteolin 7-O-β-D-glucoside]",IC50,[1],> 300 µg/mL
"O=c1cc(-c2ccc(O)c(O)c2)oc2cc(O)cc(O)c12 [Compound 22, luteolin]",percentage of C32 cells in G2/M phase,C32 melanoma cells [2]; untreated control 6.1 ± 0.6%,14.6 ± 1.5%
same,percentage of C32 cells in G1 phase,C32 melanoma cells [2]; untreated control 73.0 ± 0.9%,35.3 ± 3.0%
same,IC50,[1],95.1 ± 7.2 µg/mL
same,cells with active caspase-10,[3],15.4 ± 0.7%
same,cells with a reduced MMP,C32 melanoma cells [4],31.8 ± 0.7%
same,IC50,[5],194 ± 4.4 µg/mL
same,apoptotic cells,C32 melanoma cells [6],29.2 ± 3.0%
same,cells with active caspase-9,[7],16.6 ± 0.8%
same,cells with active caspase-8,[8],20.2 ± 1.5%
"CC[C@]1(O)C[C@@H]2CN(CCc3c([nH]c4ccccc34)[C@@](C(=O)OC)(c3cc4c(cc3OC)N(C)[C@H]3[C@@](O)(C(=O)OC)[C@H](OC(C)=O)[C@]5(CC)C=CCN6CC[C@]43[C@@H]65)C2)C1 [VLB, vinblastine sulfate]",IC50,[1],148 ± 7.7 µg/mL
same,cells with a reduced MMP,C32 melanoma cells [4],34.1 ± 3.0%
same,necrotic cells,C32 melanoma cells [6],4.2 ± 1.0%
same,apoptotic cells,C32 melanoma cells [6],27.4 ± 1.0%
same,autophagic cells,C32 melanoma cells [9]; untreated control 4.8 ± 0.8%,76.7 ± 0.5%
same,nonautophagic cells,C32 melanoma cells [9]; untreated control 94.5 ± 1.0%,22.4 ± 0.6%
same,cells with active caspase-3,[10],23.4 ± 3.5%
